Laboratory results from the OPERA property sets (Mansouri et al. 2018).

| SMILES | logP |
| --- | --- |
| Brc1cccc(Br)c1NC1=NCCN1 | 1.96 |
| CCNNC(=O)COc1ccc(Cl)cc1 | 1.73 |
| COc1ccc(N2C(N)=NC(N)=NC2(C)C)cc1 | 0.4 |
| OC(CN1CCCC1)c1ccccc1 (stereo unspecified) | 1.38 |
| COc1cc(Cc2cnc(N)nc2N)ccc1C | 2.14 |
| CCCCCCCCCCCCCCCC[n+]1cc(C)cc(C)c1.[I-] | 3.35 |
| CCCCCCCCCCCCCCCC[n+]1ccc(C)cc1C.[I-] | 3.9 |
| c1ccc(Sc2nnc[nH]2)cc1 | 1.45 |
| O=C1CN=C(c2c(F)cccc2F)c2cc(Cl)ccc2N1 | 2.68 |
| CCOc1ccccc1OC(=O)NC | 1.24 |
| O=C1CCC(=O)N1c1cccc(F)c1 | 0.38 |
| CCCCC1OC(=O)c2cc(Cl)ccc21 (stereo unspecified) | 3.53 |
| O=C1CN=C(c2ccc(Cl)cc2)c2cc(Br)ccc2N1 | 3.78 |
| O=S(=O)(Nc1ccc(I)cc1)C(F)(F)F | 4.39 |
| NNC(=O)c1ccc(N)cc1 | -0.75 |
| O=C(O)C1CCc2ccccc2O1 (stereo unspecified) | 1.9 |
| Nc1ccccc1OC1OC(CO)C(O)C(O)C1O (stereo unspecified) | -1.23 |
| COc1cc(OC)c(OC)cc1CC(C)N (stereo unspecified) | 1.74 |
| O=[N+]([O-])c1nccn1CC(O)CCl (stereo unspecified) | 0.15 |
| O=C1CCC(=O)N1c1ccc(C(F)(F)F)cc1 | 1.45 |
| NC(=O)Cn1nnc2ccccc21 | -0.1 |
| CCC(C)On1c(=O)[nH]c(C)c(Br)c1=O (stereo unspecified) | 1.11 |
| CCCNP(=O)(OC)SC (stereo unspecified) | 0.65 |
| Cc1cc(C)cc(O[Si]23OCCN(CCO2)CCO3)c1 | 0.46 |
| CCOP(=O)(OCC)SCS(=O)CC (stereo unspecified) | 1.78 |
| Clc1cc(Cl)c(-c2ccccc2)cc1Cl | 5.81 |

| SMILES | logP |
| --- | --- |
| CCC(=O)OCC(=O)[C@@]1(O)[C@@H](C)C[C@H]2[C@@H]3CCC4=CC(=O)C=C[C@]4(C)[C@@]3(F)[C@@H](O)C[C@@]21C | 3.06 |
| CN1C(=O)CN=C(c2ccccc2)c2cc(N)ccc21 | 1.46 |
| CCCOP(N)(=O)SCCC (stereo unspecified) | 1.23 |
| CS(=O)(=O)c1cccc(NC(N)=O)c1 | -0.12 |
| CCN1C(=O)CN=C(c2ccccc2)c2cc(N)ccc21 | 1.81 |
| Nc1ncnc2nc(-c3cccc([N+](=O)[O-])c3)[nH]c12 | 1.93 |
| O=[N+]([O-])c1cnc(N=C2NCCN2)s1 | 1.38 |
| CCC(=O)N(C)SN(C)C(=O)ON=C(C)SC | 1.6 |
| CCCC(=O)NC(=O)C1CCC1 | 0.41 |
| CC(C)(C)C(=O)NN1CC=CCC1 | 1.03 |
| OCC(CO)(CO)CBr | -0.7 |
| CCCCOn1c(=O)[nH]c(C)c(Br)c1=O | 1.24 |
| N#Cc1cccc(N2C(=O)CCC2=O)c1 | 0.02 |
| CCCCCCCCCCCCCC[n+]1cc(C)cc(C)c1.[I-] | 2.9 |
| CCc1cc(=O)n2c(C)cccc2n1 | 1.59 |
| CCOC(=O)C(C#N)=NNc1cc(Cl)c(Cl)c(Cl)c1 | 5.03 |
| Cc1cnc2cccc(C)n2c1=O | 1.26 |
| COc1cc(C)c(Cc2cnc(N)nc2N)cc1OCc1ccccc1 | 2.69 |
| O=C(O)COc1ccc(C2CCCC2)cc1 | 3.41 |
| CNC(=O)ON=Cc1cccc(Oc2ccccc2)c1 | 3.12 |
| CN1C(=O)CN=C(c2ccccc2F)c2cc(N)ccc21 | 1.3 |
| O=C(O)COc1ccccc1-c1ccccc1 | 2.83 |
| COc1cc(-n2[nH]c(C)cc2=O)ncn1 | 0.99 |
| COc1cc(S(=O)(=O)CCO)cc(OC)c1OC | 0.18 |
| CN(SN(C)C(=O)OC(C)(C)C)C(=O)Oc1cccc2c1OC(C)(C)C2 | 4.3 |
| CCOC(=O)C(=Cc1cccc(F)c1)C(=O)OCC | 3.19 |

| SMILES | logP |
| --- | --- |
| COc1c(OCc2ccccc2)cc(Cc2cnc(N)nc2N)cc1OCc1ccccc1 | 3.89 |
| Nc1ccccc1C(c1ccc(O)cc1)c1ccc(O)cc1 | 3.16 |
| COC(=O)C(C#N)=NNc1ccc(SC(F)(F)F)cc1 | 4.3 |
| CS(=O)(=O)N(c1ccccc1)S(C)(=O)=O | 0.62 |
| O=C(NN=Cc1ccccc1)c1ccccc1 | 2.56 |
| CC1=Nc2ccc(F)cc2S(=O)(=O)N1 | 0.62 |
| Cc1ccccc1C(=O)NN | 0.22 |
| NC1=NC(=O)C(=Cc2ccc([N+](=O)[O-])o2)S1 | 1.09 |
| Cc1cccc2c1ncc[n+]2[O-] | 1.2 |
| O=C1CN=C(c2ccccc2Br)c2cc(Br)ccc2N1 | 3.3 |
| O=C(O)COc1cccc(SC(F)(F)F)c1 | 2.86 |
| Nc1nc(N)nc(-c2cccc(Cl)c2)n1 | 2.33 |
| Cc1cc(C)nc(-n2c(C)cc(=O)n2C)n1 | 0.51 |
| CN1C(C(=O)Nc2nccs2)C(=O)c2ccccc2S1(=O)=O (stereo unspecified) | 1.64 |
| CNC1CC2OC1c1ccccc12 (stereo unspecified) | 0.91 |
| O=C(NCc1ccccc1O)c1ccccc1 | 2.55 |
| CC1N=C(c2ccccc2Cl)c2cc(Cl)ccc2N(C)C1=O (stereo unspecified) | 3.4 |
| COc1cc(C)n(-c2ccncn2)n1 | 2.21 |
| CCN1C(=O)SC(=Cc2ccc([N+](=O)[O-])o2)C1=O | 2.29 |
| COc1ccc(OC)c(NC2=NCCN2)c1 | 0.97 |
| CC(=O)C(C#N)=NNc1ccc([N+](=O)[O-])cc1[N+](=O)[O-] | 3.4 |
| CSC(C)=NOC(=O)N(C)SN(C(=O)c1ccc(C)cc1)C(C)C | 3.4 |
| CNC(=O)ON=CC(C)(C)[N+](=O)[O-] | 0.36 |
| CC1=C(C(N)=O)SCCO1 | -0.22 |
| COP(=O)(OC)Oc1cc(C)c([N+](=O)[O-])c(C)c1 | 2.57 |
| CCCCCC1(CC)C(=O)NC(=O)N(C)C1=O (stereo unspecified) | 2.45 |

| SMILES | logP |
| --- | --- |
| CN1C(=O)CN=C(c2ccccc2F)c2cc(I)ccc21 | 3.14 |
| COc1cc(Cc2cnc(N)nc2N)cc(OC)c1C(=O)OC(C)C | 1.72 |
| C[N+](C)(C)Cc1cccc(O)c1.[Br-] | -2.4 |
| N#Cc1cccc(OC(=O)CNC(=O)c2ccccc2)c1 | 2.11 |
| C=CCOn1c(=O)[nH]c(C)c(Br)c1=O | 0.32 |
| Cc1ccc(C(C)C)c(OC2OC(CO)C(O)C(O)C2O)c1 (stereo unspecified) | 1.07 |
| Oc1ccc(C(c2ccc(O)cc2)c2cccnc2)cc1 | 3.13 |
| NN=C1c2ccccc2C(=O)C1C(=O)C(c1ccccc1)c1ccccc1 (stereo unspecified) | 3.62 |
| CCC(CC)(OC)C(=O)NC(N)=O | 0.96 |
| CCSc1nnc(C(C)C)c(=O)n1N | 1.52 |
| O=[N+]([O-])c1nccn1CC(O)CO (stereo unspecified) | -0.96 |
| O=NN(CCCl)C(=O)NC1CCSCC1 | 2.07 |
| Clc1cc(Cl)c(Cl)c(-c2c(Cl)ccc(Cl)c2Cl)c1 | 7.15 |
| CSC(C)=NOC(=O)N(C)SN(C)C(=O)c1ccccc1Cl | 2.5 |
| CCCOC(=O)NC | 0.95 |
| COCN1C(=O)CN=C(c2ccccc2Cl)c2cc(Cl)ccc21 | 3.23 |
| COc1cc(Cc2cnc(N)nc2N)ccc1Nc1ccccc1 | 3.42 |
| CCCc1nnc(N)o1 | 0.23 |
| CCC1C(=O)NC(=O)N(C)C1=O (stereo unspecified) | 0.15 |
| COc1ccccc1C(=O)N1CCN(C)CC1 | 0.29 |
| CN(C)c1nnc(-c2ccccc2)c2ccccc12 | 3.22 |
| COP(=O)(OC)Oc1ccc([N+](=O)[O-])c(Cl)c1 | 1.83 |
| CC(=O)Nc1c(C)cc(O)c(C)c1C | 0.75 |
| CCOC(=O)c1[nH]cnc1N=NN(C)C | 0.44 |
| COc1ccc(Cc2cnc(N)nc2N)cc1O | 0.74 |
| N#Cc1cc[n+]([O-])cc1 | -0.94 |

| SMILES | logP |
| --- | --- |
| NC1CC2CC1c1ccccc12 (stereo unspecified) | 2 |
| COc1cccc(OC2OC(CO)C(O)C(O)C2O)c1 (stereo unspecified) | -0.52 |
| Cc1ccc(C=C[N+](=O)[O-])cc1 | 2.66 |
| CCCCCc1nnc(N)o1 | 1.1 |
| Nc1nc(=O)c2ccccc2[nH]1 | 0.6 |
| Clc1nc2c(Cl)c(Cl)c(Cl)c(Cl)c2[nH]1 | 4.53 |
| COC1=C(C)C(=O)c2ccccc2C1=O | 2.14 |
| COP(N)(=O)Oc1cc(Cl)c(Cl)cc1Cl (stereo unspecified) | 2.53 |
| Clc1ccc(-c2cc(Cl)ccc2Cl)cc1 | 5.69 |
| COc1cc(Cc2cnc(N)nc2N)cc(I)c1OC | 2.33 |
| COc1nnc(C(C)C)c(=O)n1N | -0.06 |
| COc1ccc(C(c2ccc(OC)cc2)C(Cl)Cl)cc1 | 4.47 |
| CC(=O)c1ccc(NS(=O)(=O)C(F)(F)F)cc1 | 2.83 |
| CC(=O)N(C)SN(C)C(=O)Oc1cccc2c1OC(C)(C)C2 | 2.7 |
| Fc1cccc(Cl)c1N=C1NCCN1 | 1.45 |
| CC(C)C(=O)N(C)SN(C)C(=O)Oc1cccc2c1OC(C)(C)C2 | 3.6 |
| CC1=Nc2cc(C)ccc2S(=O)(=O)N1 | 0.74 |
| CCCCCCCCCCCC[n+]1ccc(C)cc1C.[I-] | 1.41 |
| OCCCCCn1nnc2ccccc21 | 1.51 |
| O=NN(CCCl)C(=O)NCCCCNC(=O)N(CCCl)N=O | 0.9 |
| CC(=O)N(CC(O)CO)c1c(I)c(C(=O)NCC(O)CO)c(I)c(C(=O)NCC(O)CO)c1I (stereo unspecified) | -3.05 |
| CNc1nc(N(C)C)nc(N(C)C)n1 | 1.83 |
| O=NN(CCCl)C(=O)NC1CSCSC1 | 2.08 |
| O=[N+]([O-])C=Cc1ccc(O)cc1 | 2.12 |
| CCOP(N)(=O)SCC (stereo unspecified) | 0.15 |
| O=C(NC1CC1)c1cc(N2CC2)c([N+](=O)[O-])cc1[N+](=O)[O-] | 0.74 |

| SMILES | logP |
| --- | --- |
| Nc1nc(-c2ccccc2)c2ccccc2n1 | 2.95 |
| O=S(=O)(Nc1ccc(F)cc1)C(F)(F)F | 3.25 |
| O=C1CCC(=O)N1c1ccccc1C(F)(F)F | 0.76 |
| CCCCc1nnc(N)o1 | 0.65 |
| Cn1ncc2ccccc2c1=O | 0.61 |
| S=C=Nc1ccc(-c2ccc(N=C=S)cc2)cc1 | 5.5 |
| COc1cc(C)nc(-n2nc(C)cc2OC)n1 | 1.26 |
| CCCCCCCCCCCC[n+]1ccc(C)c(C)c1.[I-] | 1.75 |
| O=C1CN=C(c2ccccc2F)c2cc(I)ccc2N1CC(O)CO (stereo unspecified) | 1.81 |
| Cc1nnc(C)s1 | 0.03 |
| CCCOn1c(=O)cc(C)[nH]c1=O | 0.3 |
| O=C(CNC(=O)c1ccccc1)Oc1cccc(Cl)c1 | 3.21 |
| O=C(Cn1ccnc1[N+](=O)[O-])NCCO | -1.34 |
| COc1ncnc2ccccc12 | 1.97 |
| CCOC(=O)CN(C(=O)CCl)c1ccccc1Cl | 2.3 |
| COc1cc(CC(C)N)cc(OC)c1OC (stereo unspecified) | 1.21 |
| O=c1cc(-c2ccc([N+](=O)[O-])o2)sc(=O)[nH]1 | 0.55 |
| CC1CCC(C)N1N=O (stereo unspecified) | 0.86 |
| CNc1cc(Cc2cnc(N)nc2N)cc(NC)c1 | 0.44 |
| CN(C)CCCC(c1ccccc1)c1ccc(C(C)(C)C)cc1 (stereo unspecified) | 5.72 |
| COc1ccc2c(c1)N=C(C)NS2(=O)=O | 0.56 |
